Experimental data taken from US9862690B2, “Treatment of pulmonary and other conditions” (University of Pittsburgh—of the Commonwealth System of …, priority 2013, dated 2018).

Experiments:
p65 subunit of NF-κB = target: T1, p65 subunit of NF-κB (Mus musculus, UniProt Q04207); assay: LPS-induced lung NF-κB p65 DNA-binding activity after nebulized delivery; type: in vivo, mice; conditions: i.t. LPS; different concentrations nebulized 30 min later for 30 min
T1 construct: Following sacrifice, nuclear proteins were isolated from lungs; from tissue; host or cells: mouse lung (nuclear proteins)
T1 sequence (Q04207 whole entry): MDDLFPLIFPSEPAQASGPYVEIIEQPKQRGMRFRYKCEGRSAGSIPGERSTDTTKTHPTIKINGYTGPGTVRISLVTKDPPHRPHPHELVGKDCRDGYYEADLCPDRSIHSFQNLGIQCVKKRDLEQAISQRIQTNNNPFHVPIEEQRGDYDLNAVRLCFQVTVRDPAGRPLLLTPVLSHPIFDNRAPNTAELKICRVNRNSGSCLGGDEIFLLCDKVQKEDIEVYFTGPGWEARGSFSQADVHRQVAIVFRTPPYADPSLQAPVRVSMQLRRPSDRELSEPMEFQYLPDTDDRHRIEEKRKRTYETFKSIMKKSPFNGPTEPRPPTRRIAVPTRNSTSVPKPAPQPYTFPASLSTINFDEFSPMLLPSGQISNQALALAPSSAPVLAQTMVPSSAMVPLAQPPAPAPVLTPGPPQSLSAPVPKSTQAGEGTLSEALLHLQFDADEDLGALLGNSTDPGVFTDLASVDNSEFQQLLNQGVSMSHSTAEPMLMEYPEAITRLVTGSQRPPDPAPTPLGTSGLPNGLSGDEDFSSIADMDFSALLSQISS
Procedure: PB141 was delivered to mice by nebulization at doses of 25 or 250 mg/kg for up to 30 days. (A) Lungs were excised, sectioned, and examined histologically for evidence of inflammation or injury. (B) Potential kidney and liver injury were assessed by serum levels of creatinine, AST, and ALT. […] Acute lung injury was induced in mice by intratracheal administration of LPS. Thirty min later PBS or varying concentrations of PB141 were delivered into cage air by nebulization. Following sacrifice, nuclear proteins were isolated from lungs and used to determine DNA-binding activity of the p65 subunit of the pro-inflammatory transcription factor NF-κB.
In other experiments, acute lung injury was induced by intratracheal (i.t.) injection of endotoxin [lipopolysaccharide (LPS)] prepared from Escherichia coli O111:B6 (Sigma-Aldrich; St. Louis, Mo.). Thirty minutes later different concentrations of PB141 in isotonic saline were nebulized and delivered into cage air for 30 min using a micropump nebulizer (Buxco Research Systems, Wilmington, N.C.) fitted at the chamber inlet and flowing at 10 L of air/min. PBS was similarly delivered as a control. Nuclear proteins were prepared from lung samples and their concentrations were determined and used to quantify DNA-binding activity of the p65 subunit of the pro-inflammatory transcription factor NF-κB.

[1] = test system: NNK-induced lung tumorigenesis in A/J mice; assay: NNK-induced lung tumorigenesis in A/J mice; type: in vivo; conditions: 25 mg/kg nebulized 30 min/day for eight weeks
Procedure: Induction of lung tumorigenesis by intraperitoneal (i.p.) injection on days 1, 3, and 5 with 50 mg/kg of NNK dissolved in saline was followed by nebulization of PB141 (25 mg/kg) or vehicle (saline) and delivery to cage air via a micropump nebulizer. After 8 weeks the lung was examined histologically following H&E staining. (A) Number of lung lesions. (B) Histology showing lung tumor incidence and burden. Data are representative of one of two independent experiments with n=9-11 mice per group.
A/J mice were injected intraperitoneally on days 1, 3, and 5 with 50 mg/kg of 4-methylnitrosamino-1-(3-pyridyl)-1-butanone (NNK; Chemsyn Science Laboratories, Lenexa, Kans.) dissolved in saline. The mice were then held for 8 weeks to allow development of preinvasive lesions: alveolar hyperplasias and adenomas. […]
Mice were euthanized following the eight-week treatment period. […] Lung lesions were quantified by determining the incidence and prevalence of pulmonary pleural surface tumors, counting both the right and left lungs of each mouse. […] Hyperplastic and neoplastic lesions of the lungs were scored according to the International Classification of Rodent Tumors in 6 or 7 sections per lung. Sections were further assessed for morphometry and Ki67 immunohistochemistry.

[2] = test system: bronchial epithelial cells, THP cells, and alveolar macrophages; assay: Cigarette smoke extract exposure of cultured cells; type: cell-based, humans and mice; conditions: pretreated 1 to 5 μM, then 10% cigarette smoke extract
Procedure: For further in vitro studies, bronchial epithelial cells, THP cells (obtained from American Type Culture Collection), and alveolar macrophages (isolated from bronchial lavage fluid of humans and mice) were cultured and exposed to 10% cigarette smoke extract (CSE) prepared by smoking two cigarettes into RPMI medium according to the Federal Trade Commission (FTC) protocol. In some experiments cells were pretreated with 1 to 5 μM PB141 before the cigarette smoke extract treatment. Pretreatment with PB141 decreased epithelial cell permeability, inflammatory chemokine and cytokine production, and ROS generation.

## CC(=O)N[C@@H](CSC(CC(=O)CC(SC[C@H](NC(C)=O)C(=O)O)c1cnccn1)c1cnccn1)C(=O)O (some centres unmarked) [PB141]
p65 subunit of NF-κB
  LPS-induced upregulation of NF-κB in lung: inhibited the LPS-induced upregulation of NF-κB in a concentration-dependent manner
[1]
  Inhibition of tumor progression, premalignant lung cancer, and cell proliferation: ~40%
[2]
  Inflammatory chemokine and cytokine production: decreased
  Phagocytic ability of mouse and human alveolar macrophages: improved
  ROS generation: decreased
